Laboratory results from US20180072675A1, “ANTIMICROBIAL PYRIDINOHYDRAZIDE AND HYDRAZOMETHYLPYRIDINE-BASED AGENTS” (Board of Supervisors of Louisiana State University and …, priority 2015, published 2018).
Values after ≈ are worked out from the molar mass of the structure shown.

Assays:
[1] = system: Candida albicans (ATCC Accession No. 10231); experiment: MIC80 fungal growth inhibition, C. albicans ATCC 10231; type: cell-based; details: Azole-susceptible, >80% growth inhibition, visual scoring; for MIC80: Candida albicans, ATCC10231, read-out: MIC80 C. albicans ATCC No. 10231
Experimental: (§1) The antifungal activity of the pyridinohydrazide and hydrazomethylpyridine derivatives described in the s were evaluated in vitro using Candida albicans (ATCC Accession No. 10231) and Candida glabrata (ATCC Accession No. 48435). In addition, the compounds were evaluated for activity against two previously-described clinical isolates of C. albicans known to have developed azole-resistance. These isolates were obtained over a two year period from a single AIDS patient and the development of the azole-resistance mechanisms have been extensively characterized (White T C. Antimicrob. Agents Chemother. (1997) 41: 1482-1487). MIC assays were performed on the clinical isolates 1 and 17 (annotated TW1 and TW17, respectively), where isolate 1 was used as an azole-susceptible control and isolate 17 was considered azole-resistant. All assays were done in accordance with NCCLS reference documents (Clinical Laboratory and Standards Institute. Reference method for Broth Dilution Antifungal Susceptibility Testing of Yeasts: Approved Standard. M27-A3 2010; 28). The results of these screenings are summarized in Tables 1-9 (Examples 20-27) as the minimum concentrations that inhibited more than 80% of fungal growth (MIC80) as compared to positive controls containing 1% DMSO. Assays were performed in HEPES-buffered RPMI-1640 media. All MIC screens used a visual scoring method as opposed to spectroscopic analysis, due to the altered absorbance spectra of many of the compounds.

[2] = system: protozoal proliferation; experiment: Protozoal proliferation; type: cell-based; details: FIG. 27
[3] = system: C. albicans clinical isolate 17 (TW17); experiment: MIC80 fungal growth inhibition, clinical isolate TW17; type: cell-based, Candida albicans; details: for MIC80: Candida albicans, read-out: MIC80 TW17; for MIC80 / MIC80 TW17: Azole-resistant, >80% growth inhibition, visual scoring
Experimental: as §1

[4] = system: Candida glabrata (ATCC Accession No. 48435); experiment: MIC80 fungal growth inhibition, C. glabrata ATCC 48435; type: cell-based; details: Azole-resistant, >80% growth inhibition, visual scoring; for MIC80: Nakaseomyces glabratus, ATCC48435, read-out: MIC80 C. glabrata ATCC No. 48435
Experimental: as §1

[5] = system: C. albicans clinical isolate 1 (TW1); experiment: MIC80 fungal growth inhibition, clinical isolate TW1; type: cell-based, Candida albicans; details: Azole-susceptible, >80% growth inhibition, visual scoring; for MIC80: Candida albicans, read-out: MIC80 TW1
Experimental: as §1

[6] = system: Candida albicans ATCC Accession No. 10231; experiment: Checkerboard synergy assay with fluconazole; type: cell-based; details: for FIC Fluc: average FIC of fluconazole at varying concentrations of the test drug; for FIC Test: average FIC of the test drug at varying concentrations of fluconazole; for Activity (interaction with fluconazole): from FIC index; for FIC Index: sum of the two FICs, <1 synergistic, >=1 antagonistic
Experimental: Considering that two different modes of activity (cidal and static) were observed depending on the structural motifs present in our analogs, we performed a series of checkerboard assays to determine if representative active compounds were in fact acting in synergy with the azole, fluconazole. Each of these assays tested multiple concentrations of the selected analog in the presence of multiple concentrations of fluconazole. All checkerboard assays were prepared in 96-well plates. 200 μl of previously prepared drug solutions were added to each well in column 2. Using a multichannel pipette, 100 μl from each well in column 2 was serially diluted (1:2) horizontally across the plate, stopping at column 10. Contents of each well were mixed thoroughly. Column 11 was reserved for fluconazole MIC control and contained no other drug. 100 μl of media was added to each well, column 2-10. Each well was mixed thoroughly with a multichannel pipette. 100 μl was then removed and discarded from these wells. 100 μl of previously prepared fluconazole dilution was added to each well in row B. Using a multichannel pipette, 100 μl from each well was serially diluted (1:2) vertically down the plate, stopping at row F. Contents of each well were mixed thoroughly. Row G was reserved for tested drug MIC control and contained no fluconazole. Well G11 contained neither drug and served as a drug-free growth control. The final 100 μl from each well in row F was discarded.
The fungal samples were prepared from glycerol stocks of Candida albicans ATCC Accession No. 10231. The inoculum's concentration was adjusted to a McFarland standard between 0.08 and 0.12. Inoculum was then diluted at a ratio of 1:37.5 in buffered media. 100 μl of inoculum-media solution was added to each well. Following inoculation, the 96-well plates were wrapped in parafilm to prevent evaporation and incubated for overnight at 35° C. After 18 h, the wells showing growth were recorded.
Synergistic activity was determined based on the MIC read from these plates. The fractional inhibitory concentration (FIC) for a given well is the ratio of the minimum inhibitory concentration of one drug A in the presence another drug B to the minimum inhibitory concentration with only drug A. The FIC was calculated for the test drug in each of the wells along the growth/no-growth interface at varying concentrations of fluconazole, then these values were averaged to determine the average FIC for the test drug. The same process was used to calculate the average FIC for fluconazole at varying concentrations of the test drug. The sum of these two FICs gives the FIC index which can be used to determine the synergistic effect between the two drugs (Hsieh et al., Diagn. Microbiol. Infect. Dis. (1993) 16: 343-349). An FIC index value less than 1 indicated synergistic interactions between the two drugs while an FIC index value greater than or equal to 1 indicated antagonistic interactions.

[7] = system: Candida strain TW17; experiment: Time-kill assay; type: cell-based, Candida albicans; details: four times the MIC for TW17, 48 h
Experimental: FIG. 9 illustrates time-kill assays, for representative analogs that were active against the azole-resistant TW17, to determine the cidal or static nature of the analog tested. 100 μl of each sample was spread onto YM agar plates with a sterile bent spreading rod. Plates were incubated at 35° C. overnight and colonies were then counted on each plate.
One of the objectives of this study was to determine the cidal or static nature of the analogs that were active against such as TW17, the azole-resistant clinical isolate. Azoles affect Candida spp. by inhibiting ergosterol biosynthesis, and ultimately prevent their reproduction. This effect has led to the classification of azoles as fungistats. Determining the fungistatic or fungicidal nature of the synthesized compounds of the present disclosure allows a comparison to azoles, in addition to improving the understanding of how the structural motifs might lend toward an alternate mechanism of action. Therefore, time-kill assays were performed using the representative analogs that were active against the azole-resistant TW17 at concentrations at or below 8 μg/mL.
Solid drugs were dissolved in DMSO to a concentration of 10 mg/ml. This stock solution was then further diluted in water to the desired experimental concentration, determined to be four times that of the MIC for the Candida strain TW17 (as reported in the Tables).
Individual colonies of TW17 were suspended in 5 ml of sterile water and adjusted to achieve a McFarland reading between 0.08 and 0.12. The inoculum was then further diluted in sterile water at a ratio of 1:100. Three […] tissue culture tubes were prepared by combining 2.5 ml of above diluted inoculum, 21.7 ml of HEPES buffered RPMI-1640 media, and 800 μl of experimental drug dilution. A “Growth Control” tube was prepared by combining 2.5 ml of inoculum, 21.7 HEPES buffered RPMI-1640 media, and 800 μl of water-DMSO solution equal to the DMSO concentration of the experimental drug dilution. A “Sterile Control” tube was prepared by combining 24.2 ml of HEPES-buffered RPMI-1640 media and 800 μl of water-DMSO solution as in the “Growth Control”. All tubes were incubated for 48 hours at 35° C., 50 rpm. 500 μl samples were taken from the tubes at time points of predetermined intervals during this incubation.
Time points for the “Kill-Curve” and “Growth Control” tubes were taken at 0, 1, 2, 4, 6, 8, 24, and 48 h after the start of incubation. Time points for “Sterile Control” were taken at 0 and 48 hours. Each time point sample was serially diluted 1:10 in sterile 0.9% NaCl solution up to 5 times. 100 μl of each sample was spread onto YM agar plates with a sterile bent spreading rod. Plates were incubated at 35° C. overnight and colonies were then counted on each plate. Colonies on plates from diluted time points were used to estimate uncountable undiluted samples. The number of colonies in undiluted samples was estimated to be 10^n times greater than the diluted sample, where n was the number of dilutions made.

[8] = system: Candida spp.; experiment: MIC studies, statements pooled over several isolates; type: cell-based, Candida albicans, Candida glabrata; details: for antifungal activity (in words): overall over the isolates tested
Experimental: as §1

[9] = system: Vero (kidney) cells; experiment: Mammalian cell toxicity, Promega CellTiter 96, kidney cells; type: cell-based; details: through 10× MIC, 24 h
Experimental: (§2) Cytotoxicity was determined using non-cancerous Vero cells (kidney-african green monkey) and liver cells (Hep-2G) in accordance with Promega CellTiter 96 Non-Radioactive Cell Proliferation Assay (cat # G4000). Compounds were diluted in media and all assays were done in triplicate. Average values are presented, with ±SD. Cells were incubated in the presence of the compounds for 24 h at 37° C. and 5% CO2. Tetrazolium dye solution was added to each well and allowed to incubate for 1-4 h. Solubilization/Stop solution was added and allowed to sit at room temperature for 1 h. Formazan product was scored spectrophotometrically with an automatic plate reader set at 570 nm. Positive control wells for cell death were briefly treated with 0.1% saponin, immediately prior to the addition of dye solution. Wells containing 1% DMSO and no drug were used as a negative control and the average absorbance at 570 nm were set to 100%. The percent of cells viable were calculated as a ratio between the average absorption at 570 nm of the drug containing wells/average absorption at 570 nm of the control (no drug). Ratios were multiplied by 100 to give the values as a percentage as expressed on the y-axis.
(§3) Cytotoxicity studies were performed in accordance with Promega CellTiter 96 Non-RadioactivCell Proliferation Assay (cat #G4000). All cytotoxicity studies used a negative control (wells of either kidney or liver cells containing 1% DMSO but lacking the analog), a positive control (wells of either kidney or liver cells treated with the known cytotoxic agent, saponin) and the serial dilutions of the novel analogs. All control (negative) wells were normalized to 100% viable cells to accurately show the percentage of either liver or kidney cells that remained alive and viable following either overnight incubation with the analogs or 5-minute treatment with 0.1% saponin.

[10] = system: Hep G2 (liver) cells; experiment: Mammalian cell toxicity, Promega CellTiter 96, liver cells; type: cell-based; details: through 10× MIC, 24 h
Experimental: as §2, §3

SMILES | MIC80 [3] [µg/mL] | MIC80 [4] [µg/mL] | MIC80 [5] [µg/mL] | MIC80 C. albicans ATCC No. 10231 [1] [µg/mL] | MIC80 C. glabrata ATCC No. 48435 [4] [µg/mL] | MIC80 TW1 [5] [µg/mL] | MIC80 TW17 [3] [µg/mL] | also measured
O=C(N/N=C/c1cc(Cl)ccc1O)c1ccccn1 [AR4, (E)-N′-(5-Chloro-2-hydroxybenzylidene)picolinohydrazide] | 8 (≈ 29 µM) | 1 (≈ 3.63 µM) | 4 (≈ 14.5 µM) |  |  |  |  | MIC80 [1]: 1 µg/mL (≈ 3.63 µM); effect on protozoal proliferation [2]: reduce protozoal proliferation
O=C(N/N=C/c1cc([N+](=O)[O-])ccc1O)c1ccccn1 [AR6, (E)-N′-(2-hydroxy-5-nitrobenzylidene)picolinohydrazide] | 8 (≈ 27.9 µM) | 8 (≈ 27.9 µM) | 8 (≈ 27.9 µM) |  |  |  |  | FIC Fluc [6]: 1.00; FIC Test [6]: 1.00; Activity (interaction with fluconazole) [6]: Antagonistic; FIC Index [6]: 2.00; MIC80 [1]: 4 µg/mL (≈ 14 µM); Cidal vs Static [7]: Static
Cc1ccc(O)c(/C=N/NC(=O)c2cccnc2)c1 [AR8] |  |  |  | 4 (≈ 15.7 µM) | 8 (≈ 31.3 µM) | 16 (≈ 62.7 µM) |  | activity against azole-resistant isolates (in words) ([8]; azole-resistant isolates): less active
O=C(N/N=C/c1ccccc1O)c1cccnc1O [AR19] | 4 (≈ 15.5 µM) | 1 (≈ 3.89 µM) | 4 (≈ 15.5 µM) |  |  |  |  | cell toxicity [9]: minimal toxicity; cell toxicity [10]: minimal toxicity; growth inhibition (in words) ([8]; across all Candida albicans isolates): growth inhibition was observed at very low concentrations
O=C(N/N=C/c1cc([N+](=O)[O-])ccc1O)c1ccncc1 [SA113] |  |  |  |  |  |  |  | effect on protozoal proliferation [2]: reduce protozoal proliferation

The next lines start with results.

MIC80 [3] [µg/mL] | MIC80 [4] [µg/mL] | MIC80 [5] [µg/mL] | MIC80 C. albicans ATCC No. 10231 [1] [µg/mL] | MIC80 C. glabrata ATCC No. 48435 [4] [µg/mL] | MIC80 TW1 [5] [µg/mL] | MIC80 TW17 [3] [µg/mL] | SMILES | also measured
 |  |  | 8 (≈ 26.5 µM) | 4 (≈ 13.2 µM) | 4 (≈ 13.2 µM) | 2 (≈ 6.62 µM) | O=C(N/N=C/c1cc([N+](=O)[O-])ccc1O)c1ccc[n+]([O-])c1 [AR28] | FIC Fluc [6]: 1.00; FIC Test [6]: 1.00; Activity (interaction with fluconazole) [6]: Antagonistic; FIC Index [6]: 2.00; activity against azole-resistant TW17 [3]: 2 µM; Cidal vs Static [7]: Static
 |  |  | 16 (≈ 81.1 µM) | 31 (≈ 157 µM) | 16 (≈ 81.1 µM) | 16 (≈ 81.1 µM) | C(=NNc1ccccc1)c1ccccn1 [AR29] | antifungal activity (in words) [8]: moderate activity
 |  |  | 31 (≈ 137 µM) | 16 (≈ 70.7 µM) | 16 (≈ 70.7 µM) | 16 (≈ 70.7 µM) | O=C(NN=Cc1ccccn1)c1ccccn1 [AR34] | antifungal activity (in words) [8]: moderate activity
